These results are taken from PMC11477298, “Small Molecules Inducing Autophagic Degradation of Expanded Polyglutamine Protein through Interaction with Both Mutant ATXN3 and LC3” (International Journal of Molecular Sciences, 2024).

The test system of this series is human ATXN3-Q75-GFP SH-SY5Y cells. Nature of the series: MTT compound cytotoxicity assay. Format: cell-based. As to conditions: 0.1–100 μM compound, viability analyzed the next day, n = 3. As for the experimental part:
For the compound cytotoxicity assay, ATXN3-Q75-GFP SY5Y cells (2 × 10^4) were plated into 96-well dishes, grown for 20 h, and treated with 0.1–100 μM test compounds. After 1 day, 3-(4,5-dimethylthiazol-2-yl)-2,5-diphenyltetrazolium bromide (MTT, 5 mg/mL) (Sigma-Aldrich, St. Louis, MO, USA) was added to the cells and incubated for 3 h at 37 °C. Lysis buffer (10% Triton X-100, 0.1 N HCl, 18% isopropanol) was then added to dissolve the insoluble formazan crystals. The absorbance of the purple-colored solution was measured at optical density (OD) 570 nm by using a FLx800 fluorescence microplate spectrophotometer (Bio-Tek, Winooski, VT, USA). The half-maximal inhibitory concentration (IC50) was calculated through the construction of a dose–response curve.
(Tetrazolium assays rely on reduction of a dye to a coloured formazan, in cell work by metabolically active cells.)

Bounds are passed on as bounds.

In turn, `CC(=O)/C(=C\c1ccccc1[N+](=O)[O-])Cc1c(C)[nH]c2ccccc12` [NC009-2] registered a half-inhibitory concentration (IC50) above 100 µM.
The value for `CC(=O)/C(=C\c1ccccc1[N+](=O)[O-])Cc1c[nH]c2ccccc12` [NC009-1] was above 100 µM.

As usually defined, the IC50 is the concentration that inhibits the measured activity by half. The low end stands for higher potency, the high end for lower potency.
